#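 All cell lines were grown in 96-well plates and treated with compound for 48 hours. Abbreviation: GI50, concentration required for 50% inhibition of growth. TGI denotes the concentration required for complete inhibition of growth.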
# System: 786-0 renal
# Assay: inhibition of tumour cell growth, NCI panel, 48 h
SMILES,TGI [µM],GI50 [µM]
CCCCCCc1cc2cc(C(=O)Nc3ccc(F)cc3)c(=N)oc2cc1O,77.6,–
CN1C(NNC(=O)c2cccnc2)=NS(=O)(=O)c2cc(Cl)ccc21,> 100,> 100
Nc1c(C(=O)Nc2ccccc2Cl)sc2nc3c(cc12)C(=O)CCC3,> 100,37.7
COc1ccc(-c2cc(Nc3ccnc(N4CCOCC4)n3)on2)cc1,8.4,0.376

# System: A498 renal
# Assay: inhibition of tumour cell growth, NCI panel, 48 h
SMILES,TGI [µM],GI50 [µM]
CCCCCCc1cc2cc(C(=O)Nc3ccc(F)cc3)c(=N)oc2cc1O,> 100,–
CN1C(NNC(=O)c2cccnc2)=NS(=O)(=O)c2cc(Cl)ccc21,> 100,> 100
Nc1c(C(=O)Nc2ccccc2Cl)sc2nc3c(cc12)C(=O)CCC3,> 100,0.229
COc1ccc(-c2cc(Nc3ccnc(N4CCOCC4)n3)on2)cc1,2.41,0.343

# System: A549 NSCLC
# Assay: inhibition of tumour cell growth, NCI panel, 48 h
SMILES,TGI [µM],GI50 [µM]
CCCCCCc1cc2cc(C(=O)Nc3ccc(F)cc3)c(=N)oc2cc1O,14.9,–
CN1C(NNC(=O)c2cccnc2)=NS(=O)(=O)c2cc(Cl)ccc21,> 100,> 100
Nc1c(C(=O)Nc2ccccc2Cl)sc2nc3c(cc12)C(=O)CCC3,> 100,0.648
COc1ccc(-c2cc(Nc3ccnc(N4CCOCC4)n3)on2)cc1,12.1,0.224

# System: ACHN renal
# Assay: inhibition of tumour cell growth, NCI panel, 48 h
SMILES,TGI [µM],GI50 [µM]
CCCCCCc1cc2cc(C(=O)Nc3ccc(F)cc3)c(=N)oc2cc1O,> 100,–
CN1C(NNC(=O)c2cccnc2)=NS(=O)(=O)c2cc(Cl)ccc21,> 100,> 100
Nc1c(C(=O)Nc2ccccc2Cl)sc2nc3c(cc12)C(=O)CCC3,> 100,15.9
COc1ccc(-c2cc(Nc3ccnc(N4CCOCC4)n3)on2)cc1,13.6,0.74

# System: BT-549 breast
# Assay: inhibition of tumour cell growth, NCI panel, 48 h
SMILES,TGI [µM],GI50 [µM]
CCCCCCc1cc2cc(C(=O)Nc3ccc(F)cc3)c(=N)oc2cc1O,7.32,–
CN1C(NNC(=O)c2cccnc2)=NS(=O)(=O)c2cc(Cl)ccc21,> 100,> 100
Nc1c(C(=O)Nc2ccccc2Cl)sc2nc3c(cc12)C(=O)CCC3,> 100,> 100
COc1ccc(-c2cc(Nc3ccnc(N4CCOCC4)n3)on2)cc1,15.1,0.802

# System: CAKI-1 renal
# Assay: inhibition of tumour cell growth, NCI panel, 48 h
SMILES,TGI [µM],GI50 [µM]
CCCCCCc1cc2cc(C(=O)Nc3ccc(F)cc3)c(=N)oc2cc1O,13.6,–
CN1C(NNC(=O)c2cccnc2)=NS(=O)(=O)c2cc(Cl)ccc21,> 100,> 100
Nc1c(C(=O)Nc2ccccc2Cl)sc2nc3c(cc12)C(=O)CCC3,> 100,1.84
COc1ccc(-c2cc(Nc3ccnc(N4CCOCC4)n3)on2)cc1,18.7,0.089

# System: CCRF-CEM leukemia
# Assay: inhibition of tumour cell growth, NCI panel, 48 h
SMILES,TGI [µM],GI50 [µM]
CCCCCCc1cc2cc(C(=O)Nc3ccc(F)cc3)c(=N)oc2cc1O,3.8,–
CN1C(NNC(=O)c2cccnc2)=NS(=O)(=O)c2cc(Cl)ccc21,> 100,> 100
Nc1c(C(=O)Nc2ccccc2Cl)sc2nc3c(cc12)C(=O)CCC3,> 100,> 100
COc1ccc(-c2cc(Nc3ccnc(N4CCOCC4)n3)on2)cc1,> 34.5,0.267

# System: COLO 205 colon
# Assay: inhibition of tumour cell growth, NCI panel, 48 h
SMILES,TGI [µM],GI50 [µM]
CCCCCCc1cc2cc(C(=O)Nc3ccc(F)cc3)c(=N)oc2cc1O,> 100,–
CN1C(NNC(=O)c2cccnc2)=NS(=O)(=O)c2cc(Cl)ccc21,> 100,> 100
Nc1c(C(=O)Nc2ccccc2Cl)sc2nc3c(cc12)C(=O)CCC3,3.54,0.724
COc1ccc(-c2cc(Nc3ccnc(N4CCOCC4)n3)on2)cc1,1.53,0.239

# System: DU-145 prostate
# Assay: inhibition of tumour cell growth, NCI panel, 48 h
SMILES,TGI [µM],GI50 [µM]
CCCCCCc1cc2cc(C(=O)Nc3ccc(F)cc3)c(=N)oc2cc1O,6.78,–
CN1C(NNC(=O)c2cccnc2)=NS(=O)(=O)c2cc(Cl)ccc21,> 100,> 100
Nc1c(C(=O)Nc2ccccc2Cl)sc2nc3c(cc12)C(=O)CCC3,> 100,10.3
COc1ccc(-c2cc(Nc3ccnc(N4CCOCC4)n3)on2)cc1,13.4,0.302

# System: EKVX NSCLC
# Assay: inhibition of tumour cell growth, NCI panel, 48 h
SMILES,TGI [µM],GI50 [µM]
CCCCCCc1cc2cc(C(=O)Nc3ccc(F)cc3)c(=N)oc2cc1O,21.2,–
CN1C(NNC(=O)c2cccnc2)=NS(=O)(=O)c2cc(Cl)ccc21,> 100,> 100
COc1ccc(-c2cc(Nc3ccnc(N4CCOCC4)n3)on2)cc1,17,0.685

# System: HCC-2998 colon
# Assay: inhibition of tumour cell growth, NCI panel, 48 h
SMILES,TGI [µM],GI50 [µM]
CCCCCCc1cc2cc(C(=O)Nc3ccc(F)cc3)c(=N)oc2cc1O,> 100,–
CN1C(NNC(=O)c2cccnc2)=NS(=O)(=O)c2cc(Cl)ccc21,> 100,> 100
Nc1c(C(=O)Nc2ccccc2Cl)sc2nc3c(cc12)C(=O)CCC3,> 100,21.2
COc1ccc(-c2cc(Nc3ccnc(N4CCOCC4)n3)on2)cc1,10.6,0.461

# System: HCT-116 colon
# Assay: inhibition of tumour cell growth, NCI panel, 48 h
SMILES,TGI [µM],GI50 [µM]
CCCCCCc1cc2cc(C(=O)Nc3ccc(F)cc3)c(=N)oc2cc1O,11.1,–
CN1C(NNC(=O)c2cccnc2)=NS(=O)(=O)c2cc(Cl)ccc21,> 100,> 100
Nc1c(C(=O)Nc2ccccc2Cl)sc2nc3c(cc12)C(=O)CCC3,> 100,54.9
COc1ccc(-c2cc(Nc3ccnc(N4CCOCC4)n3)on2)cc1,13,0.081

# System: HCT-15 colon
# Assay: inhibition of tumour cell growth, NCI panel, 48 h
SMILES,TGI [µM],GI50 [µM]
CCCCCCc1cc2cc(C(=O)Nc3ccc(F)cc3)c(=N)oc2cc1O,7.62,–
CN1C(NNC(=O)c2cccnc2)=NS(=O)(=O)c2cc(Cl)ccc21,> 100,> 100
Nc1c(C(=O)Nc2ccccc2Cl)sc2nc3c(cc12)C(=O)CCC3,> 100,0.626
COc1ccc(-c2cc(Nc3ccnc(N4CCOCC4)n3)on2)cc1,13,0.0645

# System: HL-60(TB) leukemia
# Assay: inhibition of tumour cell growth, NCI panel, 48 h
SMILES,TGI [µM],GI50 [µM]
CCCCCCc1cc2cc(C(=O)Nc3ccc(F)cc3)c(=N)oc2cc1O,4.62,–
CN1C(NNC(=O)c2cccnc2)=NS(=O)(=O)c2cc(Cl)ccc21,> 100,> 100
Nc1c(C(=O)Nc2ccccc2Cl)sc2nc3c(cc12)C(=O)CCC3,> 100,3.72
COc1ccc(-c2cc(Nc3ccnc(N4CCOCC4)n3)on2)cc1,1.88,0.2

# System: HOP-62 NSCLC
# Assay: inhibition of tumour cell growth, NCI panel, 48 h
SMILES,TGI [µM],GI50 [µM]
CCCCCCc1cc2cc(C(=O)Nc3ccc(F)cc3)c(=N)oc2cc1O,12.2,–
CN1C(NNC(=O)c2cccnc2)=NS(=O)(=O)c2cc(Cl)ccc21,> 100,> 100
